Laboratory results published in ChEMBL document CHEMBL1201862, “PubChem BioAssay data set” (2004).
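In this assay, cells in 96-well plates receive the compound at five concentrations for 48 hours. Endpoints are linearly interpolated between the surrounding concentrations. GI50 is the concentration that inhibits growth by half.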 The source made the active and inactive calls. No stated cut-off is given here; in the data, active = GI50 up to about 1.1 µM and inactive = higher.

Columns and labels:
Assay in all cases: inhibition of tumour cell growth, NCI panel, 48 h
A498 = tested on: A498
COLO 205 = tested on: COLO 205
HL-60 = tested on: HL-60
HOP-62 = tested on: HOP-62
KM-20L2 = tested on: KM-20L2
M14 = tested on: M14
Malme-3M = tested on: Malme-3M
NCI-H226 = tested on: NCI-H226
OVCAR-5 = tested on: OVCAR-5
SF-295 = tested on: SF-295
SK-MEL-5 = tested on: SK-MEL-5
TK-10 = tested on: TK-10
UACC-62 = tested on: UACC-62
UO-31 = tested on: UO-31
HOP-92 = tested on: HOP-92
SR = tested on: SR

Measured: GI50

CN(C(=O)/C=C/c1ccccc1)C1C2CN3CCC(O2)C13 (configuration not stated)
inactive: A498 > 100 µM | COLO 205 > 100 µM | HL-60 > 100 µM | HOP-62 > 100 µM | KM-20L2 > 100 µM | M14 > 100 µM | Malme-3M > 100 µM | NCI-H226 > 100 µM | OVCAR-5 > 100 µM | SF-295 > 100 µM | SK-MEL-5 > 100 µM | TK-10 > 100 µM | UACC-62 > 100 µM | UO-31 > 100 µM

FC(F)(F)C1(Cl)C(c2ccccc2)=C1c1ccccc1
inactive: COLO 205 16.6 µM | HL-60 7.73 µM | HOP-62 18.3 µM | HOP-92 14.8 µM | KM-20L2 16.2 µM | M14 12.8 µM | Malme-3M 15.1 µM | NCI-H226 15.5 µM | OVCAR-5 17.4 µM | SF-295 14.9 µM | SK-MEL-5 11.7 µM | SR 22.3 µM | TK-10 20.9 µM | UACC-62 14 µM | UO-31 17.9 µM

N[C@H](C(=O)O)[C@H](Cl)CC(=O)O
inactive: A498 > 100 µM | COLO 205 > 100 µM | HL-60 > 100 µM | HOP-62 > 100 µM | HOP-92 > 100 µM | KM-20L2 > 100 µM | M14 > 100 µM | Malme-3M > 100 µM | NCI-H226 > 100 µM | OVCAR-5 > 100 µM | SF-295 > 100 µM | SK-MEL-5 > 100 µM | TK-10 > 100 µM | UACC-62 > 100 µM | UO-31 > 100 µM

CC1=C2CCCC2=C/C(=N/Nc2ccc([N+](=O)[O-])cc2[N+](=O)[O-])CC1
inactive: COLO 205 > 100 µM | HL-60 > 100 µM | HOP-62 > 100 µM | HOP-92 > 100 µM | KM-20L2 > 100 µM | M14 > 100 µM | Malme-3M > 100 µM | NCI-H226 > 100 µM | OVCAR-5 > 100 µM | SF-295 > 100 µM | SK-MEL-5 > 100 µM | SR > 100 µM | TK-10 > 100 µM | UACC-62 > 100 µM | UO-31 > 100 µM

CC(=O)N(C)OC(=O)CC(=O)c1ccccc1
inactive: COLO 205 > 100 µM | HL-60 > 100 µM | HOP-62 > 100 µM | HOP-92 > 100 µM | KM-20L2 > 100 µM | M14 > 100 µM | Malme-3M > 100 µM | NCI-H226 > 100 µM | OVCAR-5 > 100 µM | SF-295 > 100 µM | SK-MEL-5 > 100 µM | SR > 100 µM | TK-10 > 100 µM | UACC-62 > 100 µM | UO-31 > 100 µM

CC(C)(C)NNC(=O)CCn1[nH]c(=O)c(Cl)c(Cl)c1=O
inactive: A498 10.7 µM | COLO 205 > 100 µM | HL-60 > 100 µM | HOP-62 > 100 µM | KM-20L2 > 100 µM | M14 > 100 µM | Malme-3M > 100 µM | NCI-H226 > 100 µM | OVCAR-5 > 100 µM | SF-295 > 100 µM | TK-10 > 100 µM | UACC-62 > 100 µM | UO-31 > 100 µM

O=C(CCc1n[nH]c(=S)o1)Nc1ccc(Cl)cc1Cl
inactive: A498 > 100 µM | COLO 205 > 100 µM | HL-60 76.4 µM | HOP-62 > 100 µM | HOP-92 68.7 µM | KM-20L2 > 100 µM | M14 > 100 µM | Malme-3M > 100 µM | NCI-H226 > 100 µM | OVCAR-5 > 100 µM | SF-295 > 100 µM | SK-MEL-5 > 100 µM | TK-10 > 100 µM | UACC-62 > 100 µM | UO-31 > 100 µM
